Read-outs that look alike come from different tables or passages of the source.
Legend:
Bbp [1] = type: biochemical, Brucella suis
Bbp [2] = type: biochemical, Brucella suis; remark: listed apart in the source

| SMILES | Km (Bbp [1]) [µM] | Km (Bbp [2]) [µM] |
| --- | --- | --- |
| O=P(O)(O)OC[C@H]1OC(O)(COP(=O)(O)O)[C@@H](O)[C@@H]1O (some centres unmarked) [F1,6bP] | 53.2 ± 6.3 | – |
| O=C(COP(=O)(O)O)[C@@H](O)[C@H](O)[C@H](O)[C@H](O)COP(=O)(O)O [S1,7bP] | – | 13.9 ± 3.2 |

Reference: paper PMC11005471 (Frontiers in Veterinary Science, 2024)
